Assay results as given in patent US9914730B2, “Azaquinazoline inhibitors of Atypical protein Kinase C” (Ignyta, Inc., priority 2012, dated 2018).
pIC50: −log10 of the molar value.

Target: T1, full-length human PKCι (Homo sapiens, UniProt P41743)
T1 construct: Recombinant, full-length human PKCι expressed in Sf21 insect cells is also commercially available; purchased; host or cells: Sf21 insect cells
T1 sequence (P41743 1-596): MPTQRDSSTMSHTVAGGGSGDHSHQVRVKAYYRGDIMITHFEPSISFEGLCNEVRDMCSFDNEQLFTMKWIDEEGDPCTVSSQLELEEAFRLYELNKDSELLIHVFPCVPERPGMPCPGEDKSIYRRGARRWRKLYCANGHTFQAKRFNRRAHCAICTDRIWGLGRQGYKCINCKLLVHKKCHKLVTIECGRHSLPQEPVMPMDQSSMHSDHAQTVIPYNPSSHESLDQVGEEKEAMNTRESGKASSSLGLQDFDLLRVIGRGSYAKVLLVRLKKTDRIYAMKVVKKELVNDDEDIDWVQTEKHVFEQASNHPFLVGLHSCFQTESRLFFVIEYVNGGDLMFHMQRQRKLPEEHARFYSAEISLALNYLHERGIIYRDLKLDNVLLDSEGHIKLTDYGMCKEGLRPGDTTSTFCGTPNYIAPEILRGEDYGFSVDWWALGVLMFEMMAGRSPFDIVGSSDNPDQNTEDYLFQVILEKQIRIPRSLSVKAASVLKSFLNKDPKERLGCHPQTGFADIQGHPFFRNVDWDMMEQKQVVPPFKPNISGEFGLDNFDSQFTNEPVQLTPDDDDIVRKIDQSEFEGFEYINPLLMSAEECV
Test: PKCι IC50 IMAP assay, full-length PKCι at 150 μM ATP
Assay type: biochemical
Settings: read-out: IC50 in IMAP assay against full length PKCi at 150 μM ATP
Procedure, shortened: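 Dose-response IC50 values come from IMAP fluorescence polarisation after 60 min room-temperature turnover of 100 nM FAM peptide by ~15 pM insect-cell-expressed full-length PKCι at 150 μM ATP (5× KM^APP), normalised to no-compound and no-enzyme controls.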

Row | pIC50 | Structure (SMILES)
1 | > 7.00 | OC1CCC(Nc2cc(-c3nc(N4CCNCC4)c4c(C5CC5)cncc4n3)ccn2)CC1 (stereo not drawn) [Example 633, 4-[4-(5-Cyclopropyl-4-piperazin-1-yl-pyrido[3,4-d]pyrimidin-2-yl)-pyridin-2-ylamino]-cyclohexanol]
2 | > 7.00 | COc1ccc(F)c(Nc2cc(-c3nc(N4CCNCC4)c4c(C5CC5)cncc4n3)ccn2)c1Cl [Example 634, (2-Chloro-6-fluoro-3-methoxy-phenyl)-[4-(5-cyclopropyl-4-piperazin-1-yl-pyrido[3,4-d]pyrimidin-2-yl)-pyridin-2-yl]-amine]
3 | > 7.00 | Fc1ccc(F)c(Nc2cc(-c3nc(N4CCNCC4)c4c(C5CC5)cncc4n3)ccn2)c1Cl [Example 635, (2-Chloro-3,6-difluoro-phenyl)-[4-(5-cyclopropyl-4-piperazin-1-yl-pyrido[3,4-d]pyrimidin-2-yl)-pyridin-2-yl]-amine]
4 | > 7.00 | [2H]C1([2H])NC([2H])([2H])C([2H])([2H])N(c2nc(-c3ccnc(Nc4ccccc4)c3)nc3cncc(C4CC4)c23)C1([2H])[2H] [Example 636, {4-[5-Cyclopropyl-4-(2,2,3,3,5,5,6,6-octadeuterio-piperazin-1-yl)-pyrido[3,4-d]pyrimidin-2-yl]-pyridin-2-yl}-phenyl-amine]
5 | > 7.00 | COc1cc(Nc2cc(-c3nc(N4CCNCC4)c4c(C5CC5)cncc4n3)ccn2)ccc1C1CC1 [Example 637, (4-Cyclopropyl-3-methoxy-phenyl)-[4-(5-cyclopropyl-4-piperazin-1-yl-pyrido[3,4-d]pyrimidin-2-yl)-pyridin-2-yl]-amine]
6 | 6.00 to 7.00 | NC(=O)N1CCN(c2nc(-c3ccnc(Nc4ccccc4)c3)nc3cncc(C4CC4)c23)CC1 [Example 638, 4-[5-Cyclopropyl-2-(2-phenylamino-pyridin-4-yl)-pyrido[3,4-d]pyrimidin-4-yl]-piperazine-1-carboxylic acidamide]
7 | > 7.00 | O=C(Cc1c(F)cccc1F)Nc1cc(-c2nc(N3CCNCC3)c3c(C4CC4)cncc3n2)ccn1 [Example 639, N-[4-(5-Cyclopropyl-4-piperazin-1-yl-pyrido[3,4-d]pyrimidin-2-yl)-pyridin-2-yl]-2-(2,6-difluoro-phenyl)-acetamide]
8 | > 7.00 | CCCc1ccc(F)c(Nc2cc(-c3nc(N4CCNCC4)c4c(C5CC5)cncc4n3)ccn2)c1 [Example 640, [4-(5-Cyclopropyl-4-piperazin-1-yl-pyrido[3,4-d]pyrimidin-2-yl)-pyridin-2-yl]-(2-fluoro-5-propyl-phenyl)-amine]
9 | > 7.00 | Fc1cc(C2CC2)ccc1Nc1cc(-c2nc(N3CCNCC3)c3c(C4CC4)cncc3n2)ccn1 [Example 641, (4-Cyclopropyl-2-fluoro-phenyl)-[4-(5-cyclopropyl-4-piperazin-1-yl-pyrido[3,4-d]pyrimidin-2-yl)-pyridin-2-yl]-amine]
10 | 6.00 to 7.00 | Fc1cccc(F)c1Nc1cc(-c2nc(N3CCNC(CC(F)(F)F)C3)c3c(C4CC4)cncc3n2)ccn1 (stereo not drawn) [Example 642, (4-{5-Cyclopropyl-4-[3-(2,2,2-trifluoro-ethyl)-piperazin-1-yl]-pyrido[3,4-d]pyrimidin-2-yl}-pyridin-2-yl)-(2,6-difluoro-phenyl)-amine]
11 | 5.00 to 6.00 | FC(F)(F)CC1CN(c2nc(-c3ccnc(Nc4ccccc4)c3)nc3cncc(C4CC4)c23)CCN1 (stereo not drawn) [Example 643, [4-{5-Cyclopropyl-4-[3-(2,2,2-trifluoro-ethyl)-piperazin-1-yl]-pyrido[3,4-d]pyrimidin-2-yl}-pyridin-2-yl)-phenyl-amine]
12 | > 7.00 | C[C@@H](Nc1cc(-c2nc(N3CCNCC3)c3c(C4CC4)cncc3n2)ccn1)c1cccc(F)c1 [Example 644, [4-(5-Cyclopropyl-4-piperazin-1-yl-pyrido[3,4-d]pyrimidin-2-yl)-pyridin-2-yl]-[(R)-1-(3-fluoro-phenyl)-ethyl]-amine]
13 | > 7.00 | N#Cc1ccc(Nc2cc(-c3nc(N4CCNCC4)c4c(C5CC5)cncc4n3)ccn2)cc1 [Example 645, 4-[4-(5 Cyclopropyl-4-piperazin-1-yl-pyrido[3,4-d]pyrimidin-2-yl)-pyridin-2-ylamino]-benzonitrile]
14 | > 7.00 | FC(F)(F)c1cccc(Nc2cc(-c3nc(N4CCNCC4)c4c(C5CC5)cncc4n3)ccn2)c1 [Example 646, [4-(5-Cyclopropyl-4-piperazin-1-yl-pyrido[3,4-d]pyrimidin-2-yl)-pyridin-2-yl]-(3-trifluoromethyl-phenyl)-amine]
15 | > 7.00 | Fc1cc(F)c(Nc2cc(-c3nc(N4CCNCC4)c4c(C5CC5)cncc4n3)ccn2)c(F)c1 [Example 650, [4-(5-Cyclopropyl-4-piperazin-1-yl-pyrido[3,4-d]pyrimidin-2-yl)-pyridin-2-yl]-(2,4,6-trifluoro-phenyl)-amine]
16 | > 7.00 | Fc1ccc(Nc2cc(-c3nc(N4CCNCC4)c4c(C5CC5)cncc4n3)ccn2)c(F)c1 [Example 651, [4-(5-Cyclopropyl-4-piperazin-1-yl-pyrido[3,4-d]pyrimidin-2-yl)-pyridin-2-yl]-(2,4-difluoro-phenyl)-amine]
17 | > 7.00 | C[C@@H](Nc1cc(-c2nc(N3CCNCC3)c3c(C4CC4)cncc3n2)ccn1)c1ccc(F)cc1 [Example 652]
18 | > 7.00 | C[C@@H](Nc1cc(-c2nc(N3CCNCC3)c3c(C4CC4)cncc3n2)ccn1)c1c(F)cccc1F [Example 653, [4-(5-Cyclopropyl-4-piperazin-1-yl-pyrido[3,4-d]pyrimidin-2-yl)-pyridin-2-yl]-[(R)-1-(2,6-difluoro-phenyl)-ethyl]-amine]
19 | > 7.00 | Fc1cnc(Nc2ccccc2)cc1-c1nc(N2CCNCC2)c2c(C3CC3)cncc2n1 [Example 654, [4-(5-Cyclopropyl-4-piperazin-1-yl-pyrido[3,4-d]pyrimidin-2-yl)-5-fluoro-pyridin-2-yl]-phenyl-amine]
20 | 5.00 to 6.00 | CC(C)NC(=O)C1CCN(c2nc(-c3ccnc(Nc4c(F)cccc4F)c3)nc3cncc(C4CC4)c23)CC1 [Example 655, 1-{5-Cyclopropyl-2-[2-(2,6-difluoro-phenylamino)-pyridin-4-yl]-pyrido[3,4-d]pyrimidin-4-yl}-piperidine-4-carboxylic acid isopropylamide]
21 | 6.00 to 7.00 | NC(=O)C1CCN(c2nc(-c3ccnc(Nc4c(F)cccc4F)c3)nc3cncc(C4CC4)c23)CC1 [Example 656, 1-{5-Cyclopropyl-2-[2-(2,6-difluoro-phenylamino)-pyridin-4-yl]-pyrido[3,4-d]pyrimidin-4-yl}-piperidine-4-carboxylic acid amide]
22 | 6.00 to 7.00 | CC(=O)NC1CCN(c2nc(-c3ccnc(Nc4c(F)cccc4F)c3)nc3cncc(C4CC4)c23)CC1 [Example 657, N-(1-{5-Cyclopropyl-2-[2-(2,6-difluoro-phenylamino)-pyridin-4-yl]-pyrido[3,4-d]pyrimidin-4-yl}-piperidin-4-yl)-acetamide]
23 | 5.00 to 6.00 | O=C(NCCF)C1CCN(c2nc(-c3ccnc(Nc4c(F)cccc4F)c3)nc3cncc(C4CC4)c23)CC1 [Example 658, 1-{5-Cyclopropyl-2-[2-(2,6-difluoro-phenylamino)-pyridin-4-yl]-pyrido[3,4-d]pyrimidin-4-yl}-piperidine-4-carboxylic acid (2-fluoro-ethyl)-amide]
24 | 6.00 to 7.00 | CC(=O)Nc1cc(-c2nc(N3CCN[C@H](C(F)(F)F)C3)c3c(C4CC4)cncc3n2)ccn1 [Example 659, N-{4-[5-Cyclopropyl-4-((S)-3-trifluoromethyl-piperazin-1-yl)-pyrido[3,4-d]pyrimidin-2-yl]-pyridin-2-yl}-acetamide]
